Tests used:
[1] = test system: Aβ and tau deposits; experiment: Co-staining of AD brain sections with q-FTAA-CN and Example Compound 3a; type: binding, human; conditions: simultaneous staining, 100 nM q-FTAA-CN and 100 nM Example Compound 3a
Procedure: Frozen brain sections (20 μm) were fixed in 96% EtOH, rehydrated in 50% EtOH and de-ionized water and then incubated in phosphate buffered saline (PBS, 10 mM phosphate, 140 mM NaCl, 2.7 mM KCl, pH 7.4) for 10 min. Solutions containing 100 nM PBB3 and 100 nM Example Compound 3b or 100 nM q-FTAA-CN and 100 nM Example Compound 3a in PBS were added to the sections. After 30 min, the sections were washed with PBS and mounted with Dako fluorescent mounting medium (Dako Cytomation, Glostrup, Denmark). The mounting medium was allowed to solidify over night before collecting emission spectra of the compounds bound to misfolded A ? and tau using an inverted LSM 780 confocal microscope (Carl Zeiss, Oberkochen, Germany) with excitation wavelengths at 405 nm (PBB3 and q-FTAA-CN) and 561 nm (Example Compound 3a and Example Compound 3b).

[2] = target: T1, Aβ aggregates (Homo sapiens, UniProt P05067); experiment: Compound and antibody 4G8 double staining of AD brain tissue sections; type: binding; conditions: for Overlap between Fluorescence from tested compound and fluorescence from 4G8 observed / Fluorescence from tested compound observed: 100 nM compound, human AD brain tissue sections; for Overlap between Fluorescence from tested compound and fluorescence from 4G8 observed: Aβ antibody 4G8; for Fluorescence from tested compound observed: double staining with Aβ antibody 4G8; for Fluorescence from 4G8 observed: signal of Aβ antibody 4G8 in the section stained with 100 nM of the compound
T1 construct: compound and antibody double staining of Aβ or tau aggregates; from tissue; host or cells: human AD brain tissue sections (20 μm)
Procedure: (§1) To achieve compound and antibody double staining of Aβ or tau aggregates, tissue sections (20 μm) from human AD brain were fixed in 70% EtOH at 4° C. for 3 min, rehydrated in distilled water and then incubated in PBS for 30 min. Sections were blocked and permeabilized in PBS with 5% normal goat serum and 0.1% triton X-100 (blocking buffer) for 1 h at room temperature (RT). Antibody 4G8 (Biolegend, San Diego, Calif., USA) reactive to Aβ, and AT100 (Thermo Fisher Scientific, Waltham, Mass., USA) directed against tau phosphorylated at […] (3) were diluted 1:500 and 1:1000, respectively, in blocking buffer and added to the sections. After 16 h incubation at 4° C. unbound antibody was removed by washing in PBS with 0.1% triton X-100 (PBS-T) 3×10 min. To visualize antibody binding to Aβ or tau aggregates sections were incubated with goat anti-mouse secondary antibody labelled with Alexa 647 (Thermo Fisher Scientific). The antibody was diluted 1:200 in blocking buffer and after 1 h incubation at RT sections were washed in PBS 3×10 min. Example Compound 3a, Example Compound 3b, Example Compound 3c, Example Compound 3d, Example Compound 3e, Example Compound 3f, Example Compound 3g, Example Compound 3h, Example Compound 3i, Example Compound 3j, Example Compound 3k, Example Compound 3m, Example Compound 3n, Example Compound 3o, Example Compound 3p, Example Compound 3q, Example Compound 3r, Example Compound 3s, Example Compound 3t, Example Compound 3u, Example Compound 8a, Comparative Example 1, Comparative Example 2, Comparative Example 3 and Comparative Example 4 were dissolved in DMSO to a concentration of 1.5 mM and then further diluted in PBS to a final concentration of 100 nM compound prior to staining. The tissue sections were then stained for 30 min at RT with these freshly prepared solutions containing 100 nM of the respective compound in PBS. After three washes in PBS the sections were mounted in Dako mounting medium for fluorescence (Dako Cytomation, Glostrup, Denmark) and allowed to dry overnight before analysis. Fluorescence images were collected using an inverted LSM 780 confocal microscope (Carl Zeiss, Oberkochen, Germany) with the following excitation/emission wavelengths optimized for each compound: 458/484-600 (Comparative Example 1, Comparative Example 3), 561/569-648 (Example Compound 3a, Example Compound 3b, Example Compound 3c, Example Compound 3d, Example Compound 3e, Example Compound 3f, Example Compound 3g, Example Compound 3h, Example Compound 3i, Example Compound 3j, Example Compound 3k, Example Compound 3m, Example Compound 3n, Example Compound 3o, Example Compound 3p, Example Compound 3q, Example Compound 3r, Example Compound 3s, Example Compound 3t, Example Compound 3u, Example Compound 8a, Comparative Example 2 and Comparative Example 4) and 633/638-755 (Alexa 647). To visualize autofluorescent lipofuscin excitation/emission wavelengths 405/410-480 or 405/410-514 were used.

[3] = target: T2, tau aggregates (Homo sapiens, UniProt P10636); experiment: Compound and antibody AT100 double staining of AD brain tissue sections; type: binding; conditions: for Labelling of immune-positive NFTs and dystrophic neurites / Fluorescence from tested compound observed / Overlap between Fluorescence from tested compound and fluorescence from AT-100 observed: 100 nM compound; for Labelling of immune-positive NFTs and dystrophic neurites: AT100 co-staining, AD brain sections; for Fluorescence from tested compound observed / Overlap between Fluorescence from tested compound and fluorescence from AT-100 observed: human AD brain tissue sections; for Fluorescence from tested compound observed: double staining with tau antibody AT-100; for Overlap between Fluorescence from tested compound and fluorescence from AT-100 observed: tau antibody AT-100; for Fluorescence from AT-100 observed: signal of tau antibody AT-100 in the section stained with 100 nM of the compound
T2 construct: tissue sections (20 μm) from human AD brain; from tissue; host or cells: human AD brain tissue sections (20 μm)
Procedure: as §1

[4] = target: T2, tau aggregates; experiment: Example Compound 3b staining of AD brain sections pre-incubated with q-FTAA-CN; type: binding; conditions: FIG. 7H, pre-incubated with 1 μM q-FTAA-CN, then 10 nM Example Compound 3b
Procedure: Frozen brain sections (20 μm) were fixed in 96% EtOH, rehydrated in 50% EtOH and de-ionized water and then incubated in phosphate buffered saline (PBS, 10 mM phosphate, 140 mM NaCl, 2.7 mM KCl, pH 7.4) for 10 min. The sections were stained with solutions containing 1 ? M PBB3 or 1 ? M q-FTAA-CN in PBS for 30 min and after rinsing three times with PBS, the sections was stained with a solution containing 10 nM Example Compound 3b. After 30 min, the sections were washed with PBS and mounted with Dako fluorescent mounting medium (Dako Cytomation, Glostrup, Denmark). The mounting medium was allowed to solidify over night before collecting emission spectra of the compounds bound to misfolded Aβ and tau using an inverted LSM 780 confocal microscope (Carl Zeiss, Oberkochen, Germany) with excitation wavelengths at 405 nm (PBB3 and q-FTAA-CN) and 561 nm (Example Compound 3b).

T2 sequence (P10636 1-441 isoform P10636-8): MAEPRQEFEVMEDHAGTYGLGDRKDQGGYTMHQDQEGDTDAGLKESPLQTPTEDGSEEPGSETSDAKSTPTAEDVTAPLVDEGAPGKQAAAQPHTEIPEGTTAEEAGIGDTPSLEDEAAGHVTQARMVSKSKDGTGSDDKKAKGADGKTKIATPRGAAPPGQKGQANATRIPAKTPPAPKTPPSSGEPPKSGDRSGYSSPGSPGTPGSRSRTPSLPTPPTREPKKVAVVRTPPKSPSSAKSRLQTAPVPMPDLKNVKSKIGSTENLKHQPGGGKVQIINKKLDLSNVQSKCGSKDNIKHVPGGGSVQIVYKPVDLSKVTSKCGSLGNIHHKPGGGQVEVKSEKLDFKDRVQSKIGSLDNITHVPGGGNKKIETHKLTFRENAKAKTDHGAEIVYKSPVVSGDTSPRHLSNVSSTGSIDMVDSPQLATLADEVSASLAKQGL
T1 sequence (P05067 672-713 limits assumed): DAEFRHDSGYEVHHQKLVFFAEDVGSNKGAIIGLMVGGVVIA

SMILES | Deposits labelled [1] | Fluorescence from Example 3a observed ([1]; FIG. 7A-C) | Overlap between Fluorescence from Example 3a and fluorescence from q-FTAA-CN ([1]; FIG. 7A-C) | Overlap between Fluorescence from tested compound and fluorescence from 4G8 observed [2] | Fluorescence from tested compound observed [2] | Fluorescence from 4G8 observed [2] | Labelling of immune-positive NFTs and dystrophic neurites [3] | Fluorescence from tested compound observed [3] | Overlap between Fluorescence from tested compound and fluorescence from AT-100 observed [3] | Fluorescence from AT-100 observed [3] | Fluorescence from q-FTAA-CN observed [4] | Fluorescence from q-FTAA-CN observed ([4]; listed as q-FTAA) | Fluorescence from q-FTAA-CN observed ([1]; FIG. 7A-C)
CC[n+]1c(/C=C/c2ccc(-c3ccc(C(=O)OC)s3)s2)sc2ccccc21 [Example Compound 3a] | tau aggregates (arrows) displayed Example Compound 3a fluorescence | yes | no | no correlation and no | yes | yes | labelled both immune-positive NFTs and dystrophic neurites | yes | yes | yes |  |  | 
CC[n+]1c(/C=C/c2ccc(-c3cccc4nsnc34)s2)sc2ccccc21.[I-] [Example Compound 3o] |  |  |  | no correlation and no | yes | yes | labelled both immune-positive NFTs and dystrophic neurites | yes | yes | yes |  |  | 
CC[n+]1c(/C=C/c2ccc(-c3ccc(C(=O)OC)[se]3)s2)[se]c2ccc(OC)cc21.[I-] [Example Compound 3p] |  |  |  | no correlation and no | yes | yes | labelled both immune-positive NFTs and dystrophic neurites | yes | yes | yes |  |  | 
CC[n+]1c(/C=C/c2ccc(-c3ccc[se]3)s2)[se]c2ccc(OC)cc21.[I-] [Example Compound 3q] |  |  |  | no correlation and no | yes | yes | labelled both immune-positive NFTs and dystrophic neurites | yes | yes | yes |  |  | 
CC[n+]1c(/C=C/c2ccc(-c3ccc(C(=O)OC)[se]3)s2)sc2ccccc21.[I-] [Example Compound 3r] |  |  |  | no correlation and no | yes | yes | labelled both immune-positive NFTs and dystrophic neurites | yes | yes | yes |  |  | 
CC[n+]1c(/C=C/c2ccc(-c3ccc4ncsc4c3)s2)sc2ccccc21.[I-] [Example Compound 3s] |  |  |  | no correlation and no | yes | yes | labelled both immune-positive NFTs and dystrophic neurites | yes | yes | yes |  |  | 
CC[n+]1c(/C=C/c2ccc(-c3ccc(C#N)s3)s2)sc2ccccc21.[I-] [Example Compound 3t] |  |  |  | no correlation and no | yes | yes | labelled both immune-positive NFTs and dystrophic neurites | yes | yes | yes |  |  | 
CC[n+]1c(/C=C/c2ccc(-c3ccc(C(=O)OC)s3)s2)sc2ccc(O)cc21.[I-] [Example Compound 3u] |  |  |  | no correlation and no | yes | yes | labelled both immune-positive NFTs and dystrophic neurites | yes | yes | yes |  |  | 
N#Cc1cc(CC(=O)O)c(-c2ccc(-c3sc(-c4ccc(C(=O)O)s4)cc3CC(=O)O)s2)s1 [q-FTAA-CN, reference compound] | selectively labelled Aβ deposits |  |  |  |  |  |  |  |  |  | observed from both Aβ deposits (small arrow-heads) and tau aggregates and yes | labelled both Aβ deposits and NFTs | yes
